Data on eight molecules can be found in ChEMBL document CHEMBL2074069, “Drug- and estrogen-induced cholestasis through inhibition of the hepatocellular bile salt export pump (Bsep) of rat liver” (Gastroenterology, 2000).

For data set [1], the target named is T1, Bile salt export pump (Rattus norvegicus, UniProt O70127).
T1 sequence (O70127 whole entry): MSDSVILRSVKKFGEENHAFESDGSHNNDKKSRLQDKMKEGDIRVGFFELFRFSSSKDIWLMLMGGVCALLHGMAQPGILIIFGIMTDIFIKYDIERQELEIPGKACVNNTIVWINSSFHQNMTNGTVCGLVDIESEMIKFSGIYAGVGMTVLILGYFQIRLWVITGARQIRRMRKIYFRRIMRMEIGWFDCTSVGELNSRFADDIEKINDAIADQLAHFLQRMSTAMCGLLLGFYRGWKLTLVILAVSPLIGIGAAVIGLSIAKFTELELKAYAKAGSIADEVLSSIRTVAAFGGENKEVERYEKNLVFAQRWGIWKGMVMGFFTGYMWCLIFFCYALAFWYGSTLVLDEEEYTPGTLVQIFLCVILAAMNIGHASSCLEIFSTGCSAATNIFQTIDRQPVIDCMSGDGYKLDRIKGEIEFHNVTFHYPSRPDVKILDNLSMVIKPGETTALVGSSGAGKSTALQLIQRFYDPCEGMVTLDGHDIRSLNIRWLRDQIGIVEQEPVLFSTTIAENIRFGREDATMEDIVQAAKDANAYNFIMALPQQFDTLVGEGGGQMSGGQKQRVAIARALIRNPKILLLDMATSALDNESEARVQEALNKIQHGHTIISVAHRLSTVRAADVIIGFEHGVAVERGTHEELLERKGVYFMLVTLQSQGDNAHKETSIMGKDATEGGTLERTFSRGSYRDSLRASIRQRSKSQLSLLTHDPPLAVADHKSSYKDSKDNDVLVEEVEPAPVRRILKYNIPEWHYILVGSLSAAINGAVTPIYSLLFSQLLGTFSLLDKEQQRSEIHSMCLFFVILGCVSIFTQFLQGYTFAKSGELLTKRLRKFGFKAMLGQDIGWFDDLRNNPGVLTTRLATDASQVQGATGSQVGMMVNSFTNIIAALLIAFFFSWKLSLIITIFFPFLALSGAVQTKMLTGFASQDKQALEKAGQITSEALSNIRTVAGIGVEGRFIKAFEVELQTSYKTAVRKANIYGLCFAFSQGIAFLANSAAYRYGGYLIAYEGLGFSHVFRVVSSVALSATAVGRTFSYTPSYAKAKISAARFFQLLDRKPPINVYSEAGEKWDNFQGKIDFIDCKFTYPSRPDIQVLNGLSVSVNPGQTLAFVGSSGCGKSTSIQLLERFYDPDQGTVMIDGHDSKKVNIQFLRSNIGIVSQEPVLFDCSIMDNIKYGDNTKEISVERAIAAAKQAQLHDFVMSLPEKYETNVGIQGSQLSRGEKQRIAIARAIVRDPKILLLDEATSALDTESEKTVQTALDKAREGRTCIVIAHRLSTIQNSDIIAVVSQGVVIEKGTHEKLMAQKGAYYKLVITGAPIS
The data set is described as follows: (§1) TP_TRANSPORTER: uptake in membrane vesicles from Bsep-expressing Sf9 cells. The class given is functional.

Data set [2] concerns the target ATP-binding cassette sub-family C member 2 (Rattus norvegicus, UniProt Q63120). Description: TP_TRANSPORTER: uptake in membrane vesicles from Mrp2-expressing Sf9 cells. The class given is functional, cell membranes, Membrane vesicle.
Data set [3] concerns the target T1, Bile salt export pump. Description: TP_TRANSPORTER: inhibition of Taurocholate uptake in membrane vesicles from Bsep-expressing Sf9 cells. It is filed as functional.
Substrate in data set [4]: C[C@H](CCC(=O)NCCS(=O)(=O)O)[C@H]1CC[C@H]2[C@@H]3[C@@H](O)C[C@@H]4C[C@H](O)CC[C@]4(C)[C@H]3CC[C@]12C
The data set is described as §1. The class given is functional.

Substrate in data set [5]: C[C@H](CCC(=O)NCCS(=O)(=O)O)[C@H]1CC[C@H]2[C@@H]3[C@H](O)C[C@@H]4C[C@H](O)CC[C@]4(C)[C@H]3CC[C@]12C
The description is as §1. The class given is functional.

A word on the Ki: it is the equilibrium dissociation constant of an inhibitor or competing ligand from its target. What is called Km is the substrate concentration at which the rate is half of its maximum.

ATP-binding cassette sub-family C member 2, sequence (Q63120 whole entry): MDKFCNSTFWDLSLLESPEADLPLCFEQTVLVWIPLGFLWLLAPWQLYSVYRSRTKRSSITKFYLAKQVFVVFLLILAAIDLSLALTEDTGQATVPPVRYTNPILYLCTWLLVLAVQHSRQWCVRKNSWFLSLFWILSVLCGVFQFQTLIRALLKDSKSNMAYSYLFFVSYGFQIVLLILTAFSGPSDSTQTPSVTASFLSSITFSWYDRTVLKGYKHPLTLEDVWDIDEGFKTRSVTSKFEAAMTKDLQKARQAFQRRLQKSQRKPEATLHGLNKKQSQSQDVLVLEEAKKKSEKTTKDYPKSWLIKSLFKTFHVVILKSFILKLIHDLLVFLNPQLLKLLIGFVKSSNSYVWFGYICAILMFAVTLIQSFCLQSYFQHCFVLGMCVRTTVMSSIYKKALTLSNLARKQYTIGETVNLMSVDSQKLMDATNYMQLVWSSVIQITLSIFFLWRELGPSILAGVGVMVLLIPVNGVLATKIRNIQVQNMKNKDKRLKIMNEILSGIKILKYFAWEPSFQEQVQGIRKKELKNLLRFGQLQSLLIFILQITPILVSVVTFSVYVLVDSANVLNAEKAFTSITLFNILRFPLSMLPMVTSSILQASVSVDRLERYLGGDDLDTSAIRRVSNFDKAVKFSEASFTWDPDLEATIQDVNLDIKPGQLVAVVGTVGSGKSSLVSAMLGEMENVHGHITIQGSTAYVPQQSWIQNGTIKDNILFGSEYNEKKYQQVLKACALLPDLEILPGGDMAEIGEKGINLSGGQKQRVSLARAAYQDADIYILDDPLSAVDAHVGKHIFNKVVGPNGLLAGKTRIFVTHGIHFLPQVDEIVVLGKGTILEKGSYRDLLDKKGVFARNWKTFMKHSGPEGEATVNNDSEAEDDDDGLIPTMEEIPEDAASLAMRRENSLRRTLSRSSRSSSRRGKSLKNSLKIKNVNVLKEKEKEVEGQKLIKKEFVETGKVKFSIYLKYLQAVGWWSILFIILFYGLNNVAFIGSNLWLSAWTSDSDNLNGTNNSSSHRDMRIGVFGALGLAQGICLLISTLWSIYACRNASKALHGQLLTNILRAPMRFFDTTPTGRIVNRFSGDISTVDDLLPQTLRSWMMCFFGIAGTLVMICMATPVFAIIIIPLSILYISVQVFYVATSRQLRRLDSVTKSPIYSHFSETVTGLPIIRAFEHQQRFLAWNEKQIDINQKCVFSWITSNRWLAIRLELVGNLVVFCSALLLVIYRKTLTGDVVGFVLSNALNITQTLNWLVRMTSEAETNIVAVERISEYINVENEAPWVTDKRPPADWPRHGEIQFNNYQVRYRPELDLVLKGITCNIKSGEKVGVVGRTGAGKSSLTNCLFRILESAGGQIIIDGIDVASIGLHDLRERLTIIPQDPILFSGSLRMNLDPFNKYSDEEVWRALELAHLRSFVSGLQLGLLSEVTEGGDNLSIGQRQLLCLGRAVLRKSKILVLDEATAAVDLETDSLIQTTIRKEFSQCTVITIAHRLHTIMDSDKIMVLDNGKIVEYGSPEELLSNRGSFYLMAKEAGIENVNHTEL

As to `C[C@H](CCC(=O)NCC(=O)O)[C@H]1CC[C@H]2[C@@H]3[C@H](O)C[C@@H]4C[C@H](O)CC[C@]4(C)[C@H]3C[C@H](O)[C@]12C` [GLYCOCHOLIC ACID], the Activity result in data set [1] is “substrate [+]”.

In the case of `C[C@H](CCC(=O)NCCS(=O)(=O)O)[C@H]1CC[C@H]2[C@@H]3CC[C@@H]4C[C@H](O)CC[C@]4(C)[C@H]3C[C@H](O)[C@]12C` [TAURODEOXYCHOLIC ACID], the Activity entry in data set [1] is “substrate [+]”. With `C[C@H](CCC(=O)NCCS(=O)(=O)O)C1CC[C@H]2[C@@H]3CC[C@@H]4C[C@H](OS(=O)(=O)O)CC[C@]4(C)[C@H]3CC[C@]12C` (some centres undefined), the Activity result in data set [2] is “substrate [+]”.

For `COc1ccc(Cl)cc1C(=O)NCCc1ccc(S(=O)(=O)NC(=O)NC2CCCCC2)cc1` [GLYBURIDE], in data set [3], the inhibition constant Ki came out at 6.1 µM.

`C[C@H](CCC(=O)NCC(=O)O)[C@H]1CC[C@H]2[C@@H]3[C@H](O)C[C@@H]4C[C@H](O)CC[C@]4(C)[C@H]3CC[C@]12C` [GLYCOCHENODEOXYCHOLATE]: in data set [1], the Activity entry is “substrate [+]”. Consider `CO[C@H]1/C=C/O[C@@]2(C)Oc3c(C)c(O)c4c(O)c(cc(O)c4c3C2=O)NC(=O)/C(C)=C\C=C\[C@H](C)[C@H](O)[C@@H](C)[C@@H](O)[C@@H](C)[C@H](OC(C)=O)[C@@H]1C` [RIFAMYCIN], for which the inhibition constant (Ki) in data set [3] was determined as 3.8 µM. With `CO[C@H]1/C=C/O[C@@]2(C)Oc3c(C)c(O)c4c(O)c(c(/C=N/N5CCN(C)CC5)c(O)c4c3C2=O)NC(=O)/C(C)=C\C=C\[C@H](C)[C@H](O)[C@@H](C)[C@@H](O)[C@@H](C)[C@H](OC(C)=O)[C@@H]1C` [RIFAMPIN], the inhibition constant Ki in data set [3] is 11.9 µM.

B1: Bile salt export pump (Rattus norvegicus) (protein)
chain: MSDSVILRSVKKFGEENHAFESDGSHNNDKKSRLQDKMKEGDIRVGFFELFRFSSSKDIWLMLMGGVCALLHGMAQPGILIIFGIMTDIFIKYDIERQELEIPGKACVNNTIVWINSSFHQNMTNGTVCGLVDIESEMIKFSGIYAGVGMTVLILGYFQIRLWVITGARQIRRMRKIYFRRIMRMEIGWFDCTSVGELNSRFADDIEKINDAIADQLAHFLQRMSTAMCGLLLGFYRGWKLTLVILAVSPLIGIGAAVIGLSIAKFTELELKAYAKAGSIADEVLSSIRTVAAFGGENKEVERYEKNLVFAQRWGIWKGMVMGFFTGYMWCLIFFCYALAFWYGSTLVLDEEEYTPGTLVQIFLCVILAAMNIGHASSCLEIFSTGCSAATNIFQTIDRQPVIDCMSGDGYKLDRIKGEIEFHNVTFHYPSRPDVKILDNLSMVIKPGETTALVGSSGAGKSTALQLIQRFYDPCEGMVTLDGHDIRSLNIRWLRDQIGIVEQEPVLFSTTIAENIRFGREDATMEDIVQAAKDANAYNFIMALPQQFDTLVGEGGGQMSGGQKQRVAIARALIRNPKILLLDMATSALDNESEARVQEALNKIQHGHTIISVAHRLSTVRAADVIIGFEHGVAVERGTHEELLERKGVYFMLVTLQSQGDNAHKETSIMGKDATEGGTLERTFSRGSYRDSLRASIRQRSKSQLSLLTHDPPLAVADHKSSYKDSKDNDVLVEEVEPAPVRRILKYNIPEWHYILVGSLSAAINGAVTPIYSLLFSQLLGTFSLLDKEQQRSEIHSMCLFFVILGCVSIFTQFLQGYTFAKSGELLTKRLRKFGFKAMLGQDIGWFDDLRNNPGVLTTRLATDASQVQGATGSQVGMMVNSFTNIIAALLIAFFFSWKLSLIITIFFPFLALSGAVQTKMLTGFASQDKQALEKAGQITSEALSNIRTVAGIGVEGRFIKAFEVELQTSYKTAVRKANIYGLCFAFSQGIAFLANSAAYRYGGYLIAYEGLGFSHVFRVVSSVALSATAVGRTFSYTPSYAKAKISAARFFQLLDRKPPINVYSEAGEKWDNFQGKIDFIDCKFTYPSRPDIQVLNGLSVSVNPGQTLAFVGSSGCGKSTSIQLLERFYDPDQGTVMIDGHDSKKVNIQFLRSNIGIVSQEPVLFDCSIMDNIKYGDNTKEISVERAIAAAKQAQLHDFVMSLPEKYETNVGIQGSQLSRGEKQRIAIARAIVRDPKILLLDEATSALDTESEKTVQTALDKAREGRTCIVIAHRLSTIQNSDIIAVVSQGVVIEKGTHEKLMAQKGAYYKLVITGAPIS
Regarding B1, the Michaelis constant (Km) in data set [4] stood at 4.1 µM; in data set [5], 2.2 µM.
